The target of test [1] is T1, human neutrophil elastase (HNE) (Homo sapiens, UniProt P08246).
T1 construct: purchased Sigma, EMDbiosciences
T1 sequence (P08246 30-267): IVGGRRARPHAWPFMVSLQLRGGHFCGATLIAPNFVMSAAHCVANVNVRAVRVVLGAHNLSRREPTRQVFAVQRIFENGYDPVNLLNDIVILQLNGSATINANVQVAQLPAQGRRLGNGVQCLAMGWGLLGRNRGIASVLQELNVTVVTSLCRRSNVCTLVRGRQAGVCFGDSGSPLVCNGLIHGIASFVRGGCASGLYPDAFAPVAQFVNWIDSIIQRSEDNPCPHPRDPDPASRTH
The test can be described thus: Specificity assay, human neutrophil elastase. The test is classed as biochemical. Conditions: read-out: HLE activity in the specificity assays (IC50). As for the experimental part:
The specificities of compounds of the present disclosure were determined against a variety of serine proteases: human neutrophil elastase (HNE), porcine pancreatic elastase (PPE) and human pancreatic chymotrypsin and one cysteine protease: human liver cathepsin B. In all cases a 96-well plate format protocol using either colorimetric p-nitroaniline (pNA) substrate or fluorometric Amino-Methyl-Coumarin (AMC) specific for each enzyme was used as described previously (PCT Patent Application No. WO 00/09543) with some modifications to the serine protease assays. All enzymes were purchased from Sigma, EMDbiosciences while the substrates were from Bachem, Sigma and EMDbiosciences.
The pNA assay for Chymotrypsin included a 1 h enzyme-inhibitor pre-incubation at room temperature followed by addition of substrate and hydrolysis to ˜15% conversion as measured on a Spectramax Pro microplate reader. Compound concentrations varied from 100 to 0.4 μM depending on their potency. Cathepsin B, HNE, and PPE assays each was initiated by addition of substrate to enzyme-inhibitor pre-incubated for 10 min at room temperature and hydrolysis to 15% conversion as measured on cytofluor.
50 mM Tris-HCl, pH 8.0, 50 mM NaCl, 0.1 mM EDTA, 3% DMSO, 0.02% Tween-20, 5 μM succ-AAPV-AMC and 20 nM HNE or 8 nM PPE;
The percentage of inhibition was calculated using the formula: [1−((UVinh−UVblank)/(UVctl−UVblank))]×100 […]

Test [2] has as its target T2, HCV NS3/4A protease complex, J4L6S strain (Hepatitis C virus genotype 1b, UniProt O92972, C1454S/C1711G).
T2 construct: DNA encoding the recombinant HCV NS3/4A protease complex (amino acids 1027 to 1711) for these strains; made in house; host or cells: Escherichia coli BL21 (DE3), pET21b
The test can be described thus: FRET peptide assay to monitor HCV NS3/4A proteolytic activity (J4L6S strain). The class given is biochemical. Conditions: read-out: IC50 against the NS3/4A J4L6S strain. The source says:
HCV NS3 protease complexes, derived from the BMS strain, H77 strain or J4L6S strain, were generated, as described below. These purified recombinant proteins were generated for use in a homogeneous assay (see below) to provide an indication of how effective compounds of the present disclosure would be in inhibiting HCV NS3 proteolytic activity.
Serum from an HCV-infected patient was obtained from Dr. T. Wright, San Francisco Hospital. An engineered full-length cDNA (compliment deoxyribonucleic acid) template of the HCV genome (BMS strain) was constructed from DNA fragments obtained by reverse transcription-PCR (RT-PCR) of serum RNA (ribonucleic acid) and using primers selected on the basis of homology between other genotype 1a strains. From the determination of the entire genome sequence, a genotype 1a was assigned to the HCV isolate according to the classification of Simmonds et al. (See P Simmonds, K A Rose, S Graham, S W Chan, F McOmish, B C Dow, E A Follett, P L Yap and H Marsden, J. Clin. Microbiol., 31(6), 1493-1503 (1993)). […]

The text below walks through data of patent US7772180B2, “Hepatitis C virus inhibitors” (Bristol-Myers Squibb Company, priority 2006, dated 2010).

T2 sequence (O92972 1027-1711 C1454S/C1711G, one chain of several): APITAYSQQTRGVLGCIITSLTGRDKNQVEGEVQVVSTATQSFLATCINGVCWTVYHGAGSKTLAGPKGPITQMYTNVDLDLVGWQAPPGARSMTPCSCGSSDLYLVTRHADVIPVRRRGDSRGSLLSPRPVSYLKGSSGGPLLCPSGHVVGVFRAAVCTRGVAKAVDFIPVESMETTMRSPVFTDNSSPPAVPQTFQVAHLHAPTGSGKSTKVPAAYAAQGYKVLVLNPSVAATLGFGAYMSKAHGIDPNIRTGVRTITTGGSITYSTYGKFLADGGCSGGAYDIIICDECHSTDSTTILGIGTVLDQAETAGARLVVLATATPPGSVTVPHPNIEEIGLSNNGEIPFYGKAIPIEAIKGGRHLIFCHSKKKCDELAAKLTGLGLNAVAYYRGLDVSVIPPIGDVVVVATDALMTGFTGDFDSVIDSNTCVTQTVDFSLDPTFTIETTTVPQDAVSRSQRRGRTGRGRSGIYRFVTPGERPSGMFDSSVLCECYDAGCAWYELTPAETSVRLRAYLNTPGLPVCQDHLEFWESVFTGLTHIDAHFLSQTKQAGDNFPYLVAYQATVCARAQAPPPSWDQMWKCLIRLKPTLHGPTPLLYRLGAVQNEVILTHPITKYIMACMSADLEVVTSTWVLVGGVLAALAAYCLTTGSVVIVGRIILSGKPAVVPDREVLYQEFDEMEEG

On to `C=C[C@@H]1C[C@]1(NC(=O)[C@@H]1C[C@@H](Oc2nc(N(C)C)cc3cc(OC)ccc23)CN1C(=O)C(Nc1cc(C)cc(C)n1)C(C)(C)C)C(=O)NS(=O)(=O)C1CC1` (single isomer, unassigned) [Compound 18], for which the values for the IC50 in test [1] and in test [2] were > 1560 nM and 0.9 nM, respectively.
